Key:
Assay in all cases: combination Emax (second highest fraction inhibited in the dose matrix, 72 h); higher = more inhibition; extreme values may be limits of the assay
[1] = tested on: SNU-407 (Colorectal Carcinoma)
How it was run: (§1)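 After 24 hours at 37°C and 5% CO2 in 1536-well plates, cells in DMEM/F12 or RPMI plus 10% FBS received two-drug dose matrices for 72 hours. Viability came from CellTiter-Glo 2.0 luminescence and was scaled as inhibition, anchored at 0 by vehicle wells and at 1 by blank wells. Combination Emax is taken as the second-highest inhibition in the matrix, and Bliss excess as the observed combination effect less EA + EB − EA·EB, with EA and EB the single-agent effects.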

[2] = tested on: MONO-MAC-6 (Acute Myeloid Leukemia)
How it was run: as §1

[3] = tested on: Raji (Burkitt's Lymphoma)
How it was run: as §1

[4] = tested on: NCI-H596 (Other Solid Carcinomas)
How it was run: as §1

[5] = tested on: MOLT-13 (T-Lymphoblastic Leukemia)
How it was run: as §1

[6] = tested on: CL-11 (Colorectal Carcinoma)
How it was run: as §1

[7] = tested on: RCC-JW (Kidney Carcinoma)
How it was run: as §1

[8] = tested on: SUP-M2 (T-Cell Non-Hodgkin's Lymphoma)
How it was run: as §1

[9] = tested on: P32-ISH (Burkitt's Lymphoma)
How it was run: as §1

[10] = tested on: WM35 (Melanoma)
How it was run: as §1

[11] = tested on: SNU-423 (Hepatocellular Carcinoma)
How it was run: as §1

[12] = tested on: TUR (Acute Myeloid Leukemia)
How it was run: as §1

[13] = tested on: NB1 (Neuroblastoma)
How it was run: as §1

[14] = tested on: NCI-H1963 (Small Cell Lung Carcinoma)
How it was run: as §1

[15] = tested on: PA-TU-8988T (Pancreatic Carcinoma)
How it was run: as §1

[16] = tested on: MDA-MB-415 (Breast Carcinoma)
How it was run: as §1

[17] = tested on: NCI-H1876 (Small Cell Lung Carcinoma)
How it was run: as §1

[18] = tested on: T84 (Colorectal Carcinoma)
How it was run: as §1

[19] = tested on: SKG-IIIa (Cervical Carcinoma)
How it was run: as §1

[20] = tested on: NMC-G1 (Low Grade Glioma)
How it was run: as §1

SMILES | combination Emax [1] | combination Emax [2] | combination Emax [3] | combination Emax [4] | combination Emax [5] | combination Emax [6] | combination Emax [7] | combination Emax [8] | combination Emax [9] | combination Emax [10] | combination Emax [11] | combination Emax [12] | combination Emax [13] | combination Emax [14] | combination Emax [15] | combination Emax [16] | combination Emax [17] | combination Emax [18] | combination Emax [19] | combination Emax [20]
CC1(C)CCC(CN2CCN(c3ccc(C(=O)NS(=O)(=O)c4ccc(NCC5CCOCC5)c([N+](=O)[O-])c4)c(Oc4cnc5[nH]ccc5c4)c3)CC2)=C(c2ccc(Cl)cc2)C1 [Venetoclax] + C=CCn1c(=O)c2cnc(Nc3ccc(N4CCN(C)CC4)cc3)nc2n1-c1cccc(C(C)(C)O)n1 [AZD1775] (first compound max 1 µM, partner max 1 µM) | 0.558 | 0.992 | 0.725 | 0.259 | 1 | 0.502 | 0.286 | 0.981 | 1 | 0.165 | 0.732 | 0.911 | 0.889 | 0.973 | 0.728 | 0.206 | 0.994 | 0.577 | 0.271 | 0.394
Cc1c2c(nn1C)CSCc1cc(n(C)n1)CSc1cc(c3ccccc3c1)OCCCc1c(C(=O)O)n(C)c3c-2c(Cl)ccc13 [AZD5991] + C1CN(CCC1(C(=O)N[C@@H](CCO)C2=CC=C(C=C2)Cl)N)C3=NC=NC4=C3C=CN4 [Capivasertib] (first compound max 1 µM, 7x7, partner max 3 µM) | 0.774 | 1 | 0.692 | 0.318 | 1 | 0.133 | 0.208 | 1 | 1 | 0.207 | 0.341 | 0.913 | 0.507 | 0.43 | 0.34 | 0.801 | 0.673 | 0.0983 | 0.18 | 0.214
COc1cccc(OCCCN)c1-c1cc(Nc2cnc(C#N)cn2)n[nH]1 [Prexasertib] + C=CCn1c(=O)c2cnc(Nc3ccc(N4CCN(C)CC4)cc3)nc2n1-c1cccc(C(C)(C)O)n1 [AZD1775] (first compound max 1 µM, partner max 1 µM) | 0.784 | 1 | 0.977 | 0.65 | 1 | 0.834 | 0.703 | 1 | 1 | 0.819 | 0.878 | 1 | 0.906 | 1 | 0.898 | 0.584 | 1 | 0.861 | 0.527 | 0.384
Cc1cc2ncnn2cc1Nc1ncc2c(n1)n(C1CCOCC1)c(=O)n2C [AZD7648] + C[C@@H]1COCCN1C2=NC(=NC(=C2)C3(CC3)[S@](=N)(=O)C)C4=C5C=CNC5=NC=C4 [AZD6738] (first compound max 10 µM, 7x7, partner max 10 µM) | 0.663 | 0.899 | 0.779 | 0.365 | 0.903 | 0.767 | 0.568 | 0.992 | 0.938 | 0.497 | 0.524 | 0.907 | 0.775 | 0.728 | 0.378 | 0.515 | 0.809 | 0.706 | 0.318 | 0.31
COc1cccc(OCCCN)c1-c1cc(Nc2cnc(C#N)cn2)n[nH]1 [Prexasertib] + CN(C)CCCOc1ccc(-c2ccc3ncc4c(c3c2)n(C2CCOCC2)c(=O)n4C)cn1 [AZD0156] (first compound max 1 µM, 7x7, partner max 1 µM) | 0.653 | 0.963 | 0.959 | 0.414 | 1 | 0.734 | 0.366 | 1 | 1 | 0.845 | 0.713 | 1 | 0.911 | 0.975 | 0.38 | 0.321 | 0.968 | 0.815 | 0.389 | 0.362
CCN(CCO)CCCOc1ccc2c(Nc3cc(CC(=O)Nc4cccc(F)c4)[nH]n3)ncnc2c1 [AZD2811] + O=C(c1cc(Cc2n[nH]c(=O)c3ccccc23)ccc1F)N1CCN(C(=O)C2CC2)CC1 [Olaparib] (first compound max 1 µM, 7x7, partner max 10 µM) | 0.306 | 0.783 | 0.341 | 0.238 | 0.997 | 0.202 | 0.183 | 0.975 | 0.946 | 0.179 | 0.264 | 0.285 | 0.653 | 0.856 | 0.208 | 0.225 | 0.821 | 0.112 | 0.147 | 0.318
Cc1cc2ncnn2cc1Nc1ncc2c(n1)n(C1CCOCC1)c(=O)n2C [AZD7648] + CN(C)CCCOc1ccc(-c2ccc3ncc4c(c3c2)n(C2CCOCC2)c(=O)n4C)cn1 [AZD0156] (first compound max 10 µM, 7x7, partner max 1 µM) | 0.179 | 0.497 | 0.227 | 0.243 | 0.15 | 0.255 | 0.339 | 0.183 | 0.214 | 0.129 | 0.341 | 0.164 | 0.238 | 0.211 | 0.271 | 0.504 | 0.317 | 0.214 | 0.241 | 0.207
CCc1c2c(nc3ccc(O)cc13)-c1cc3c(c(=O)n1C2)COC(=O)[C@]3(O)CC [SN-38] + CN(C)CCCOc1ccc(-c2ccc3ncc4c(c3c2)n(C2CCOCC2)c(=O)n4C)cn1 [AZD0156] (first compound max 0.3 µM, 7x7, partner max 1 µM) | 0.416 | 1 | 0.958 | 0.348 | 1 | 0.764 | 0.656 | 1 | 1 | 0.509 | 0.455 | 0.982 | 0.83 | 0.822 | 0.704 | 0.294 | 1 | 0.644 | 0.42 | 0.24
C[C@@H]1COCCN1c1cc(C2([S@](C)(=N)=O)CC2)nc(-c2ccnc3[nH]ccc23)n1 [AZD6738] + O=C(c1cc(Cc2n[nH]c(=O)c3ccccc23)ccc1F)N1CCN(C(=O)C2CC2)CC1 [Olaparib] (first compound max 10 µM, 7x7, partner max 10 µM) | 0.75 | 0.948 | 0.855 | 0.5 | 0.999 | 0.758 | 0.552 | 1 | 0.91 | 0.547 | 0.576 | 0.907 | 0.772 | 0.804 | 0.448 | 0.446 | 0.945 | 0.672 | 0.444 | 0.392
CN(CCO)CC[C@H](CSc1ccccc1)Nc1ccc(S(=O)(=O)NC(=O)c2ccc(N3CCC([C@@H](O)c4ccccc4-c4ccc(Cl)cc4)CC3)cc2)cc1S(=O)(=O)C(F)(F)F [AZD4320] + CCN(CCO)CCCOc1ccc2c(Nc3cc(CC(=O)Nc4cccc(F)c4)[nH]n3)ncnc2c1 [AZD2811] (first compound max 1 µM, 7x7, partner max 1 µM) | 0.411 | 0.959 | 0.219 | 0.289 | 1 | 0.0894 | 0.661 | 0.979 | 0.915 | 0.136 | 0.466 | 0.255 | 0.684 | 1 | 0.398 | 0.619 | 0.998 | 0.0513 | 0.191 | 0.718
CCN(CCO)CCCOc1ccc2c(Nc3cc(CC(=O)Nc4cccc(F)c4)[nH]n3)ncnc2c1 [AZD2811] + C=CCn1c(=O)c2cnc(Nc3ccc(N4CCN(C)CC4)cc3)nc2n1-c1cccc(C(C)(C)O)n1 [AZD1775] (first compound max 1 µM, partner max 1 µM) | 0.416 | 0.958 | 0.667 | 0.346 | 1 | 0.612 | 0.161 | 1 | 1 | 0.197 | 0.59 | 0.668 | 0.869 | 0.876 | 0.678 | 0.131 | 0.991 | 0.645 | 0.261 | 0.254
Cc1c2c(nn1C)CSCc1cc(n(C)n1)CSc1cc(c3ccccc3c1)OCCCc1c(C(=O)O)n(C)c3c-2c(Cl)ccc13 [AZD5991] + C=CCn1c(=O)c2cnc(Nc3ccc(N4CCN(C)CC4)cc3)nc2n1-c1cccc(C(C)(C)O)n1 [AZD1775] (first compound max 1 µM, partner max 1 µM) | 0.796 | 1 | 0.916 | 0.289 | 1 | 0.507 | 0.279 | 1 | 1 | 0.371 | 0.591 | 0.965 | 0.936 | 0.945 | 0.891 | 0.404 | 0.992 | 0.631 | 0.377 | 0.425
Cc1c2c(nn1C)CSCc1cc(n(C)n1)CSc1cc(c3ccccc3c1)OCCCc1c(C(=O)O)n(C)c3c-2c(Cl)ccc13 [AZD5991] + C[C@@H]1COCCN1C2=NC(=NC(=C2)C3(CC3)[S@](=N)(=O)C)C4=C5C=CNC5=NC=C4 [AZD6738] (first compound max 1 µM, 7x7, partner max 10 µM) | 0.811 | 1 | 0.974 | 0.318 | 1 | 0.645 | 0.547 | 1 | 1 | 0.343 | 0.471 | 0.99 | 0.931 | 0.885 | 0.345 | 0.554 | 0.97 | 0.669 | 0.333 | 0.377
